Measured values: patent publication EP0128338A1, “Silver pseudomonate, compositions containing it and its use in treating pseudomonal infections” (BEECHAM GROUP PLC, priority 1983, dated 1984)

System: Pseudomonas aeruginosa
Assay: Minimum inhibitory concentrations (MICs) against 20 strains of Pseudomonas aeruginosa in Blood Agar Base
Assay type: cell-based
Method: • a) The minimum inhibitory concentrations (MICs) of silver pseudomonate and sodium pseudomonate were determined against 20 strains of Pseudomonas aeruginosa in Blood Agar Base. […] Typical results are presented in Table 2. [formula] [formula]

Silver Pseudomonate A
minimum inhibitory concentrations (MICs) (20 strains of Pseudomonas aeruginosa, Blood Agar Base, comparison in words): more active than sodium pseudomonate against all strains tested
activity against Pseudomonas organisms (general statement in words): active
